# Measurements reported in publication PMC9189904, “Functional Properties of Two Distinct PTH1R Mutants Associated With Either Skeletal Defects or Pseudohypoparathyroidism” (JBMR Plus, 2022).
# Positions count from the first letter of the chain named.
# Tests used:
# Type in all cases: cell-based
# PTH1R‐R186H [1] = target: T1, PTH1R‐R186H (Homo sapiens, UniProt Q03431, R186H); assay: Fluorescence microscopy of PTH(1-34)TMR-PTH1R complexes in GS-22a cells, ImageJ analysis; settings: ligand 30nM, means of six cells, representative experiment
# T1 construct: expressed in transfected cells; plasmid TG-907 made by VectorBuilder
# T1 sequence (Q03431 27-593 E90Y/S91D/E92V/E93P/K95Y/E96A/R186H): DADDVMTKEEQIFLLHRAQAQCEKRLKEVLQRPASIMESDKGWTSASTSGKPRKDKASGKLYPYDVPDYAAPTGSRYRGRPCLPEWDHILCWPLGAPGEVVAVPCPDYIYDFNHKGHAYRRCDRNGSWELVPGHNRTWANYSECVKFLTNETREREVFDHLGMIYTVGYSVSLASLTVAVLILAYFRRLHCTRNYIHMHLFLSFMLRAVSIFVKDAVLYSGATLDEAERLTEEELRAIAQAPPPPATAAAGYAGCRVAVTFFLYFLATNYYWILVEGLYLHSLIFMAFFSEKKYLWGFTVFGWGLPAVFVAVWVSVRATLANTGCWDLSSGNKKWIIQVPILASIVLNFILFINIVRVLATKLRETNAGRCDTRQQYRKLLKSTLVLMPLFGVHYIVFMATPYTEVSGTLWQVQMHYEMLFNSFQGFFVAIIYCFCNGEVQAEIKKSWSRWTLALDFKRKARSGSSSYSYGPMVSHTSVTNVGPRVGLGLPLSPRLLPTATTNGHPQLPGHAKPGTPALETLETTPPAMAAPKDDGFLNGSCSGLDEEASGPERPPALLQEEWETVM
# Protocol: (§1) PTH analog binding to WT and mutant PTH1Rs was assessed by fluorescence microscopy in transiently transfected GS‐22A cells as described.^( [30], [31] ^) Briefly, the cells were transfected in six‐well plates, reseeded at 24 hours onto coverslips in six‐well plates, and at 48 hours posttransfection processed for analysis. The plates were placed on ice and the cells on coverslips were rinsed with cold HB. Then 1.0 mL of HB was then added to each well, followed by Alexafluor‐488‐labeled mouse monoclonal anti‐HA immunoglobulin G (IgG) antibody (BioLegend; Cat. No. 901509) at a concentration of 1 μg/mL, and the plate was incubated at 4°C for 1 hour. […] The plate was then shifted to room temperature and incubations continued for 30 minutes. The mixtures were then removed, the cells were rinsed twice with HB, fixed for 5 minutes in 3.7% paraformaldehyde buffer (Boston BioProducts, Inc., Ashland, MA, USA; Cat. No. BM‐158), rinsed with HB, then mounted on a glass microscope slide in Vectashield media containing 4′,6‐diamidino‐2‐phenylindole (DAPI) (Vector Laboratories, Burlingame, CA, USA; Cat. No. H1500) and imaged at magnification ×400 using a Nikon Eclipse fluorescence microscope equipped with a CCD camera configured with SPOT imaging software (Nikon, Tokyo, Japan). Regions of interest were digitally expanded 5× or 7× in PowerPoint software (Microsoft Corp., Redmond, WA, USA).
# (§2) Fluorescent microscopy images were analyzed using ImageJ software, ver. […] The freehand tool was used to define the area analyzed for each cell, and the Measure>Analyze Particle tool was used to obtain the number of particles, the total area and the mean grayscale (intensity) of each particle for each cell. For each cell, the number of particles was divided by the total area to obtain the Particles/Total Area.
# PTH1R‐V204E [2] = target: T2, PTH1R‐V204E (Homo sapiens, UniProt Q03431, V204E); assay: as above; settings: ligand 30nM, means of six cells, representative experiment
# T2 construct: expressed in transfected cells; plasmid TG-928 made by VectorBuilder
# T2 sequence (Q03431 27-593 E90Y/S91D/E92V/E93P/K95Y/E96A/V204E): T1 sequence (Q03431 27-593 E90Y/S91D/E92V/E93P/K95Y/E96A/R186H) with H160R, V178E
# Protocol: as §1, §2
# PTH1R‐WT [3] = target: T3, PTH1R‐WT (Homo sapiens, UniProt Q03431); assay: as above; settings: ligand 30nM, 30 min 4°C then 30 min room temperature, means of six cells, representative experiment
# T3 construct: expressed in transfected cells; plasmid TG-906 made by VectorBuilder
# T3 sequence (Q03431 27-593 E90Y/S91D/E92V/E93P/K95Y/E96A): T1 sequence (Q03431 27-593 E90Y/S91D/E92V/E93P/K95Y/E96A/R186H) with H160R
# Protocol: as §1, §2
# PTH1R‐P132L = target: T4, PTH1R‐P132L (Homo sapiens, UniProt Q03431, P132L); assay: β-arrestin2-YFP recruitment by fluorescence microscopy in GBR-24 cells, ImageJ analysis; settings: ligand 30nM
# T4 construct: expressed in transfected cells; plasmid TG-395 in pCDNA1
# T4 sequence (Q03431 27-593 E90Y/S91D/E92V/E93P/K95Y/E96A/P132L): T1 sequence (Q03431 27-593 E90Y/S91D/E92V/E93P/K95Y/E96A/R186H) with P106L, H160R
# Protocol: (§3) Recruitment of β‐arrestin was assessed in GBR‐24 cells (HEK293/GloSensor (GS‐22A)‐derived cells stably expressing β‐arrestin2^YFP)^( [30] ^) that were transiently transfected to express PTH1R‐WT or a mutant derivative.
# as §2
# PTH1R‐R186H [4] = target: T1, PTH1R‐R186H; assay: as above; settings: ligand 30nM
# Protocol: as §3, §2
# PTH1R‐V204E [5] = target: T2, PTH1R‐V204E; assay: as above; settings: ligand 30nM
# Protocol: as §3, §2
# PTH1R‐WT [6] = target: T3, PTH1R‐WT; assay: as above; settings: ligand 30nM
# Protocol: as §3, §2
# [7] = GBR24 cells, means of six cells
# [8] = GBR-24 cells, 30 min, a representative cell
substance,measurement,setting,value
"tetramethylrhodamine (TMR)‐^ n L ^8,21‐rat‐PTH(1‐34) [PTH(1‐34)^TMR]",Particles /Total Area,PTH1R‐R186H [1],1162 ± 95
same,Particles /Total Area,PTH1R‐V204E [2],826 ± 78
same,Particles /Total Area,PTH1R‐WT [3],1011 ± 57
same,Particles/Total Area (βArrestinYFP-ligand complexes),PTH1R‐P132L; [7],223 ± 66
same,ligand binding and β-arrestin2YFP recruitment (microscopy signal),"PTH1R‐P132L; GBR-24 cells, 30 min (Fig. 4A)",Only faint signal
same,Particles/Total Area (βArrestinYFP-ligand complexes),PTH1R‐R186H [4]; [7],603 ± 81
same,"Pearson correlation coefficient (R), colocalization of ligand with β-arrestin2YFP",PTH1R‐R186H [4]; [8],0.86
same,Particles/Total Area (βArrestinYFP-ligand complexes),PTH1R‐V204E [5]; [7],496 ± 44
same,"Pearson correlation coefficient (R), colocalization of ligand with β-arrestin2YFP",PTH1R‐V204E [5]; [8],0.69
same,Particles/Total Area (βArrestinYFP-ligand complexes),"PTH1R‐WT [6]; GBR24 cells, 30 min room temperature, means of six cells, representative experiment",704 ± 22
same,"Pearson correlation coefficient (R), colocalization of ligand with β-arrestin2YFP",PTH1R‐WT [6]; [8],0.97
